Experiments:
[1] = In vitro permeation experiment of FP drug-in-adhesive patches in two-chamber diffusion cells; type: in vitro ADME, rabbit; settings: for ER (Q24h with enhancer/Q24h without enhancer) for R-FP / Tlag of R-FP / Js of R-FP: permeant R-FP; for ER (Q24h with enhancer/Q24h without enhancer) for R-FP / Tlag of R-FP / Js of R-FP / ER (Q24h with enhancer/Q24h without enhancer) for S-FP / Tlag of S-FP / Js of S-FP / ER (Q24h with enhancer/Q24h without enhancer) for SR-FP / Tlag of SR-FP / Js of SR-FP: patch 5% drug (w/w); for ER (Q24h with enhancer/Q24h without enhancer) for R-FP / ER (Q24h with enhancer/Q24h without enhancer) for S-FP / ER (Q24h with enhancer/Q24h without enhancer) for SR-FP: enhancer equimolar to 5% 4-TER; for Tlag of R-FP / Js of R-FP / Tlag of S-FP / Js of S-FP / Tlag of SR-FP / Js of SR-FP: enhancer equimolar to 5% 4-TER (control: no enhancer); for Js of R-FP / Js of S-FP / Js of SR-FP: mean ± SD, n = 4; for ER (Q24h with enhancer/Q24h without enhancer) for S-FP / Tlag of S-FP / Js of S-FP: permeant S-FP; for ER (Q24h with enhancer/Q24h without enhancer) for SR-FP / Tlag of SR-FP / Js of SR-FP: permeant SR-FP
From the text: Male, Japanese big-eared rabbits weighting 2.5–3.0 kg were purchased from the animal experimental center of North China University of Science and Technology. The experimental process was in accordance with the ‘Ethical Guide for Laboratory Animal Investigation’ and was approved by the Animal Experimental Center Committee of North China University of Science and Technology. All efforts were made to minimize animal suffering and to limit the number of animals used.
The hair of back skin was removed by clipper and electrical shaver carefully when the rabbits were anesthetized with ether. Full thickness of back skin was excised after the rabbit was sacrificed by injecting air into the ear veins, and the subcutaneous fat tissue was carefully removed using the surgical scissor and scalpel. The integrity of the skin was confirmed by microscopic observation method. The treated rabbit skin was cut into a size of 1.5 cm × 1.5 cm and stored at –80 °C until use. Before use, it needed to be immersed in physiological saline for 20 min to thaw.
Drug-in-adhesive patch (drug loading of 5% by adhesive) was prepared by using solvent evaporation method. An appropriate amount of FP was dissolved in a suitable amount of ethyl acetate, which was later added to the adhesive and mixed thoroughly with a mechanical stirrer. The resulting solution was coated onto release liner (Scotch Pak® 9744, 3M, USA) by using lab coating unit (6025, BLD Instruments Co. Ltd., Guangdong, China). The coated laminate was dried at 50 °C for 15 min. After the solvent had been removed, it was covered with backing laminate (Scotch Pak® 9732, 3M).
Modified two-chamber diffusion cells with an effective diffusion area of 0.95 cm^2 were employed in the in vitro permeation experiment. The cells were kept at 32 °C by the circulated water bath and stirred with magnetic bars at 400 rpm. The dermis side of the skin was attached to one-half of the side-by-side diffusion cells, the FP patch was pressed on the skin with the adhesive side facing the SC, and pH 7.4 PBS was used as the receptor medium. At predetermined time points (2, 4, 6, 8, 10, 12 and 24 h), the receptor solution of 2.0 mL was withdrawn and equal volume PBS was added to maintain a constant volume of receptor solution.
The cumulative amount of each drug permeating per unit area (Q) versus time was plotted. Q24h=(3.5Ci+2.0∑i=1n−1Ci−1)/A
Q was the cumulative skin permeation amount. Ci was the concentration in the receiver compartment at time i, A was the effective diffusion area of diffusion.
The steady-state flux (Js, µg/cm^2/h) was calculated from the slope of linear region of the plot. The lag-time was determined by extrapolating the linear portion of the curve to the abscissa. Js=dQr/Adt
Enhancement ratio (ER) was used to evaluate the activity of the enhancers, which is the ratio of Q24h with enhancer to Q24h without enhancer. ER=Q24h(with enhancer)/Q24h(without enhancer)

[2] = In vivo pharmacokinetic study, transdermal patch administration; parameters: species or system rabbit; settings: rabbits, SR-FP patch with 5% enhancer or without (control)
Method: Thirty-six male rabbits weighing 2.5 kg were divided into six groups, and the back skin was intact without erythema. For patch administration studies, patches without or with enhancers (120 mg/kg) were stuck to the shaved area of the rabbits. They were administered as follows: (1) control group: only the SR-FP; (2) enhancer group A: prepared SR-FP patch with 5% d-4-TER; (3) enhancer group B: prepared SR-FP patch with 5% d-4-T-dC18; (4) enhancer group C: prepared SR-FP patch with 5% l-4-T-dC18; (5) enhancer group D: prepared S-FP patch with 5% d-4-T-dC18; (6) enhancer group E: prepared R-FP patch with 5% d-4-T-dC18. In order to prevent the patches fallen off, gauze and medical tape were used to fix the patches. The blood from ear vein of rabbit was collected 0.5 mL at 0.5, 1, 2, 4, 6, 8, 12, 16, 20, 24, 26, 28, 30, 32, 36 and 48 h, and the patch was removed after 24 h, then the residual drug was wiped with physiological saline. The sample was processed by the same method as IV. All animal studies were carried out in accordance with the NIH Guidelines for the Care and Use of Laboratory Animals and were also approved by the Life Science Research Center of North China University of Science and Technology.
After being thawed and equilibrated to room temperature, an aliquot (100 μL) of plasma sample was spiked with […] (10 μL) of 40.0 μg/mL and 400 μL methanol. The samples were vortexed for 5 min and followed by centrifugation at 16,000 rpm for 10 min at 25 °C. After centrifugation, the supernatant was transferred to a clean tube and evaporated to dryness at 40 °C under a gentle stream of nitrogen. The dried samples were reconstituted with 100 μL mobile phase, vortexed and centrifuged before analysis.
Pharmacokinetic parameters were calculated using WinNonlin® software (Pharsight Corporation, San Diego, CA, USA) based on noncompartmental model, including the maximal plasma drug concentration (Cmax), the time to reach Cmax (Tmax) which were obtained from the observed data, the area under the time–concentration curve from time 0 to time t (AUC0–t) of distribution which was calculated using the linear trapezoidal rule, the mean residence time (MRT), the plasma clearance (Cl) and the apparent volume(V). Enhancement factor (Ef) was calculated from the following equation: Ef=AUC0−t(with enhancer)/AUC0−t(without enhancer)
The concentrations of drugs in the receptor medium or rabbit plasma were determined using a validated HPLC method. The HPLC system was equipped with a Shimadzu HPLC apparatus, including an LC-20AT pump, a SIL20A syringe, an SPD-20A detector, and a CTO-20A column oven. The propylparaben was used as an internal standard, and the flow rate of chromatographic analysis was set 1.0 mL/min. For in vitro analysis of SR-FP, thermo (USA) C18 column (150 mm × 4.6 mm, 5 μm particle) maintained at 40 °C was used to elute SR-FP, the mobile phase was used methanol and 1% aqueous glacial acetic acid (60:40, v/v) and the wavelength was set at 247 nm. The HPLC conditions of S-FP and R-FP were as follows: The column was CHIRALPAK®IA (4.6 mm × 250 mml, 5 μm particle diameter) of DAOCEL (Shanghai, China). The mobile phase consisted of acetonitrile and trifluoroacetic acid (0.05%, 50:50, v/v), the wavelength was set at 254 nm. For in vivo analysis of S-FP and R-FP, the mobile phase consisted of acetonitrile and trifluoroacetic acid (0.05%, 35:65, v/v), and other conditions were the same to in vitro analysis.
Absolute bioavailability (F) was calculated by the following equation: F=AUCpatch·Dosei.v./AUCi.v.·Dosepatch

ER (Q24h with enhancer/Q24h without enhancer) for R-FP [1]	Tlag of R-FP [1] [h]	Js of R-FP [1] [μg/cm^2/h]	ER (Q24h with enhancer/Q24h without enhancer) for S-FP [1]	Tlag of S-FP [1] [h]	Js of S-FP [1] [μg/cm^2/h]	ER (Q24h with enhancer/Q24h without enhancer) for SR-FP [1]	Tlag of SR-FP [1] [h]	Js of SR-FP [1] [μg/cm^2/h]	Q24h of SR-FP ([1]; enhancer at same molar concentration as 5% 4-TER) [μg/cm^2]	V of R-FP ([2]; analyte R-) [L]	V of S-FP ([2]; analyte S-) [L]	cumulative transport of SR-FP at 24 h ([1]; 3% enhancer level (w/w)) [μg/cm^2]	cumulative transport of SR-FP at 24 h ([1]; 5% enhancer level (w/w)) [μg/cm^2]	SMILES
1.38	2.11	3.19 ± 0.47	1.10	4.18	3.00 ± 0.69	1.35	2.96	6.58 ± 1.41						CCCCCCC(=O)OC1(C(C)C)CC=C(C)CC1 (stereo not drawn) [l-4-T-C7, l-4-methyl-1-(1-methylethyl)-3-cyclohexen-1-yl heptanoate]
2.92	3.51	7.62 ± 1.49	2.73	3.37	6.80 ± 0.50	1.92	2.45	11.83 ± 6.27						CCCCCCCCCCCCCC(=O)OC1(C(C)C)CC=C(C)CC1 (stereo not drawn) [l-4-T-C14, l-4-methyl-1-(1-methylethyl)-3-cyclohexen-1-yl tetradecanoate]
4.6	3.68	12.04 ± 2.51	4.98	3.89	12.98 ± 3.51	4.45	3.61	20.53 ± 3.11	547.20 ± 35.94	65.31 ± 28.90	68.51 ± 17.97			CCCCCCCCC=CCCCCCCCC(=O)OC1(C(C)C)CC=C(C)CC1 (stereo not drawn) [l-4-T-dC18, l-4-methyl-1-(1-methylethyl)-3-cyclohexen-1-yl octadec-9-enoate]
2.64	3.82	6.99 ± 1.12	2.25	4.07	6.02 ± 0.99	1.81	3.13	11.43 ± 2.06				145.16 ± 13.64	222.09 ± 19.19	CC1=CC[C@@](O)(C(C)C)CC1 [l-4-TER, l-4-terpineol, reference compound]

From publication PMC7269032, “Chiral 4-O-acylterpineol as transdermal permeation enhancers: insights of the enhancement mechanisms of a transdermal enantioselective delivery system for flurbiprofen” (Drug Delivery, 2020)
